From paper PMC11427828, “The role of chloroplast SRP54 domains and its C-terminal tail region in post- and co-translational protein transport in vivo” (Journal of Experimental Botany, 2024)
Numbering of substitutions follows the chain as printed.

Legend:
[1] = target: T1, cpSRP54–His (recombinant mature cpSRP54) (Arabidopsis thaliana, UniProt P37107); assay: isothermal titration calorimetry; assay type: binding; conditions: read-out: dissociation constant
T1 construct: gene FFC; mature protein, residues 79-564 (transit peptide removed), C-terminal His6, E. coli Rosetta (DE3), EDTA-treated then SEC in Mg buffer
T1 sequence (P37107 79-564): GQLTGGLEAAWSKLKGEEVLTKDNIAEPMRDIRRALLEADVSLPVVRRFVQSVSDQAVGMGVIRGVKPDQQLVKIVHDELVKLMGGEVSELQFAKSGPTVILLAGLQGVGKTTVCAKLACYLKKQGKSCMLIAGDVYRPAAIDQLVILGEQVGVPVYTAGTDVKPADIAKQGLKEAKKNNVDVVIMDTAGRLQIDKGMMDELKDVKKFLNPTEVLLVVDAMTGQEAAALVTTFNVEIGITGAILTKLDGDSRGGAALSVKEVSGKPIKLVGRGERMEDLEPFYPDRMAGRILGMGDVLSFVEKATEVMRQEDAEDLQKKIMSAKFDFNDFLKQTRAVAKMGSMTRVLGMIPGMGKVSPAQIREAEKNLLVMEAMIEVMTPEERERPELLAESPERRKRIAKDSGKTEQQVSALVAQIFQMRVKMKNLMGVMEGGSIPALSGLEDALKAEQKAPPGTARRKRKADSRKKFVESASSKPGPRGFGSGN

[2] = target: T2, cpSRP54–His (recombinant mature cpSRP54) (Arabidopsis thaliana, UniProt P37107, Q185R); assay: isothermal titration calorimetry; assay type: binding; conditions: read-out: dissociation constant
T2 construct: gene FFC; mature protein, residues 79-564 (transit peptide removed), C-terminal His6, E. coli Rosetta (DE3), EDTA-treated then SEC in Mg buffer
T2 sequence (P37107 79-564 Q185R): T1 sequence (P37107 79-564) with Q107R

| Kd [1] [µM] | Kd [2] [µM] | SMILES |
| --- | --- | --- |
| 30.2 | 30.3 | Nc1nc2c(ncn2[C@@H]2O[C@H](COP(=O)(O)OP(=O)(O)O)[C@@H](O)[C@H]2O)c(=O)[nH]1 [GDP] |
| 53.4 | 17.3 | Nc1nc2c(ncn2[C@@H]2O[C@H](COP(=O)(O)OP(=O)(O)OP(=O)(O)O)[C@@H](O)[C@H]2O)c(=O)[nH]1 [GTP] |
